Patent US20060178307A1, “Modulation of NMDA receptor currents via orexin receptor and/or CRF receptor” (priority 2005, published 2006)
Entries after “also recorded” stand apart in the source; their conditions may differ. Where no end group is shown, it is not given here.

Legend:
reinforcement for food = assay: Operant food self-administration, progressive ratio schedule; assay type: in vivo, rats
Description: After 3-4 weeks of self-administration of cocaine (0.5 mg/infusion) ramping from fixed ratio of 1 lever press (FR1) to receive a reward to a stable fixed ratio of 5 lever presses to receive a reward (FR5) schedule, animals lever pressed for cocaine on a progressive ratio schedule for 4 days. On the second and third day, each animal received a vehicle injection (i.p.), and on the fourth day the animals received an injection (i.p.) of the OXR1 antagonist: SB334867, 10 mg/kg. As a control, orexin modulation of food self-administration was examined under the same paradigm. For food self-administration, animals were trained to an FR5 schedule for food pellets.
This effect of the OXR1 antagonist was not observed with respect to reinforcement for food. Rats were trained to lever press for food on an […] schedule, and subsequently a progressive ratio schedule. Rats were given vehicle on the 2nd and 3rd day of progressive ratio testing and then SB 334867 (10 mg/kg, i.p.) on the 4th day.

[1] = system: AMPAR/NMDAR ratio of EPSCs in VTA dopamine cells; assay: AMPAR/NMDAR ratio in VTA slices 24 hr after 5-day in vivo treatment; parameters: species or system rat; settings: 5 days
Description: The next study investigated whether orexin signaling in the VTA is required for the long-term plasticity associated with the development of behavioral sensitization. Long-term synaptic plasticity at excitatory synapses on VTA neurons was examined 24 hr after a 5-day treatment of cocaine (15 mg/kg) or saline (0.9%), a time course shown to induce long-lasting locomotor sensitization to cocaine (Thomas et al., 2001), with or without the OXR1 antagonist, SB 334867 (10 mg/kg, FIG. 5). To assay for synaptic plasticity, the relative contributions of AMPARs and NMDARs to EPSCs recorded in VTA dopamine cells were compared. Consistent with the potentiation observed following acute and 7-day cocaine treatments (Borgland et al., 2004), 5-day treatment with cocaine potentiated the AMPAR/NMDAR ratio compared to saline controls (FIG. 5A, saline: 0.4±0.07, n=4; cocaine: 0.8±0.1, n=4, p<0.05). This potentiation of synaptic plasticity was blocked by 5-day treatment with the OXR1 antagonist, SB 334867, administered 15 min prior to cocaine or saline (FIG. 5A, saline+SB334867: 0.4±0.02, n=5 vs. cocaine+SB334867: 0.5±0.08, n=11, p>0.05). Since OXR1 antagonists block cocaine-mediated potentiation of the AMPAR/NMDAR ratio, orexin A may either facilitate cocaine-mediated synaptic plasticity or enhance synaptic transmission itself. A 5-min orexin A application was performed to determine whether this caused changes in AMPAR/NMDAR ratio either 15 min or 3-4 hours after application (FIG. 5B).
To calculate the AMPAR/NMDAR ratio, an average of 12 EPSCs at +40 mV was computed before and after application of the NMDAR blocker, AP5 (50 μM) for 5 min. NMDAR responses were calculated by subtracting the average response in the presence of AP5 (AMPAR only) from that seen in its absence; the peak of the AMPAR EPSC was divided by the peak of the NMDAR EPSC to yield an AMPAR/NMDAR ratio.
Male Sprague-Dawley Rats (P21-P30; Charles River, N.C.) were singly housed with food and water available ad libitum. A 12 hr light/dark cycle was used, with the lights on at 7:00 A.M. All cocaine injections and behavioral testing were performed during the light cycle for consecutive days. The four treatment groups consisted of rats given 5 daily i.p. injections of SB 334867 (10 mg/kg) 15 min preceding i.p. injection of cocaine (15 mg/kg) or saline (0.9% NaCl), or i.p. injections of vehicle (10% DMSO and 25% β-hydroxy cyclodextrin in saline) 15 min preceding i.p. injection of cocaine or saline. […] Locomotor activity was measured in 17″×17″ chambers lined with three 16-beam I/R arrays. […] Distance traveled was measured using Open Field Activity Software (Med Associates, Inc) and analyzed for estimates of locomotion based on the movement of a given distance and resting delay (movement in a given period of time).

AMPAR mEPSCs = assay: AMPAR-mediated miniature EPSCs (mEPSCs) in VTA neurons; assay type: cell-based, rat
Description: Next, to investigate whether AMPAR function and/or number was modified with orexin A treatment, AMPAR-mediated miniature EPSCs (mEPSCs) were examined (a standard method for determining the locus of synaptic change). Compared to untreated neurons, orexin A (100 nM) caused a significant increase in both amplitude (FIG. 6C,D,F) and frequency (FIG. 6C,E,G) 3-4 hours after application (24±1.6 pA; 2.4±0.5 Hz; n=7 vs control: 13±1.3 pA; 0.93±0.16 Hz; n=7; FIG. 6A), but not at 15 min (15±1.7 pA; 0.9±0.1 Hz; n=[…], FIG. 6B).
AMPAR mEPSCs were recorded in cells voltage-clamped at −70 mV in lidocaine (500 μM), APV (50 μM) and sucrose (100 mM). NMDAR mEPSCs were recorded at −40 mV in Mg2+-free external solution with lidocaine (500 μM), glycine (20 μM), and CNQX (10 μM). mEPSCs were collected using Clampex (Axon Instruments) and analyzed using Mini Analysis Program (Synaptosoft). Detection criteria were set at >10 pA, <1 ms rise-time, and <3 ms decay-time for AMPAR mEPSCs and >10 pA, <1 ms rise-time, and <10 ms decay-time for NMDAR mEPSCs. mEPSC traces were recorded while sampling every 10 μs, the images were filtered at 5 kHz. Averaged mEPSCs were constructed using Mini Analysis Program (Synaptosoft).

[2] = 10 mg/kg i.p. on 4th day of progressive ratio, n=10
[3] = 3-4 hours after orexin A 100 nM, n=7
[4] = 3-4 hours after orexin A, APV 50 μM applied 3 min prior and during orexin, n=7
[5] = 15 min after orexin A 100 nM, n=6

Compound	breakpoint (food) (reinforcement for food; [2])	total number of food pellets received (reinforcement for food; [2])	reinforcement for food (reinforcement for food; 10 mg/kg i.p., hydrochloride)	effect on cocaine-induced potentiation of AMPAR/NMDAR ratio ([1]; 10 mg/kg i.p. 15 min prior to cocaine)	AMPAR/NMDAR ratio ([1]; cocaine 15 mg/kg + SB334867 10 mg/kg 15 min prior, n=11)	AMPAR/NMDAR ratio ([1]; saline + SB334867 10 mg/kg 15 min prior, n=5)	AMPAR mEPSC amplitude (AMPAR mEPSCs; [3]) [pA]	AMPAR mEPSC frequency (AMPAR mEPSCs; [3]) [Hz]	AMPAR mEPSC amplitude (AMPAR mEPSCs; [4]) [pA]	AMPAR mEPSC frequency (AMPAR mEPSCs; [4]) [Hz]	AMPAR mEPSC amplitude (AMPAR mEPSCs; [5]) [pA]	AMPAR mEPSC frequency (AMPAR mEPSCs; [5]) [Hz]
Cc1nc2ccc(NC(=O)Nc3ccnc4cccnc34)cc2o1.Cl [SB 334867, 1-(2-methylbenzoxazol-6-yl)-3-[1,5]naphthyridin-4-yl urea hydrochloride]	unaltered	not altered	not observed; also recorded: did not alter	blocked	0.5±0.08	0.4±0.02						
orexin A: neuropeptide synthesized in neurons of the LH; orexin receptor agonist selective for the OXR1 receptor (QPLPDCCRQKTCSCRLYELLHGAGNHAAGILTL; ends and bridges not checked; cysteine pairing not given here; UniProt O43612 34-66, looked up)							24±1.6	2.4±0.5	16±0.6	1.6±0.3	15±1.7	0.9±0.1
